{"source": "patent US20050154537A1", "about": "“Methods, program products, and systems for single and multi-agent dosing and other related methods” (priority 2003, published 2005)", "tested_on": "ANC", "assay": "Chemotherapeutic doublet cycle dose modifier (Taxol, Gemzar), ANC marker", "type": "in vivo", "settings": "ANC of patient on doublet", "from_the_text": "Gemzar and Taxol are used in this example as dual agents. Table 2 illustrates a method of revising a drug dose in treating a patient with two pharamcologic and non-pharmacological modalities to optimize pharmacologic outcome, e.g., to reduce risk of an adverse drug event while assessing the clinical relevancy and validity of the measured surrogate markers.\nPrevious Level of Toxicity-Efficacy (PLTE) is a value directly entered such as from a lab report. It is the numerical value of the marker of toxicity or efficacy reported at the previous dose cycle adjustment (evaluated at a specified elapsed time sufficient to capture the nadir of the dose effect). The surrogate marker is selected when the dose modifier is constructed.\nCurrent Level of Toxicity-Efficacy (CLTE) is a value directly entered such as from a lab report. It is the numerical value of the marker of toxicity or efficacy reported with the current dose cycle. The surrogate marker is that value that illustrates the expression of the toxicity or efficacy of the agent on a specific and pre-selected value determined when the dose modifier is constructed. […] If valid, then the value is fully appreciated and the dose modification can be calculated. […]\nProjected Marker Agent 1 (Taxol) (PM1) is calculated by a dose modifier. […]\nProjected Marker Agent 2 (Gemzar) (PM2) is calculated by a dose modifier. […]"}
{"smiles": "CC(=O)O[C@H]1C(=O)[C@@]2(C)[C@H]([C@H](OC(=O)c3ccccc3)[C@]3(O)C[C@H](OC(=O)[C@H](O)[C@@H](NC(=O)c4ccccc4)c4ccccc4)C(C)=C1C3(C)C)[C@]1(OC(C)=O)CO[C@@H]1C[C@@H]2O", "note": "[Taxol]", "values": [{"measurement": "Current Level of Toxicity/CLTEM1", "setting": "current cycle total dose Taxol 300, Gemzar 6200, marker 9 days after dose", "result": 1.50}, {"measurement": "Previous Level of Toxicity/PLTEM1", "setting": "previous cycle total dose Taxol 385, Gemzar 7650", "result": 1.00}]}
